Results published in ChEMBL document CHEMBL4765227, “Hit to lead optimization of a series of N-[4-(1,3-benzothiazol-2-yl)phenyl]acetamides as monoacylglycerol lipase inhibitors with potential anticancer activity” (Eur J Med Chem, 2016).

Legend:
Format in all cases: functional
MOLT-4 = assay: Growth inhibition of human MOLT-4 cells incubated for 48 hrs by sulforhodamine B assay
A549 = assay: Growth inhibition of human A549/ATCC cells incubated for 48 hrs by sulforhodamine B assay
HOP-62 = assay: Growth inhibition of human HOP-62 cells incubated for 48 hrs by sulforhodamine B assay
HOP-92 = assay: Growth inhibition of human HOP-92 cells incubated for 48 hrs by sulforhodamine B assay
NCI-H23 = assay: Growth inhibition of human NCI-H23 cells incubated for 48 hrs by sulforhodamine B assay
NCI-H322M = assay: Growth inhibition of human NCI-H322M cells incubated for 48 hrs by sulforhodamine B assay
HCC 2998 = assay: Growth inhibition of human HCC 2998 cells incubated for 48 hrs by sulforhodamine B assay
KM12 = assay: Growth inhibition of human KM12 cells incubated for 48 hrs by sulforhodamine B assay
SF-295 = assay: Growth inhibition of human SF-295 cells incubated for 48 hrs by sulforhodamine B assay
U-251 = assay: Growth inhibition of human U-251 cells incubated for 48 hrs by sulforhodamine B assay
LOX IMVI = assay: Growth inhibition of human LOX IMVI cells incubated for 48 hrs by sulforhodamine B assay
Malme-3M = assay: Growth inhibition of human Malme-3M cells incubated for 48 hrs by sulforhodamine B assay
M14 = assay: Growth inhibition of human M14 cells incubated for 48 hrs by sulforhodamine B assay
MDA-MB-435 = assay: Growth inhibition of human MDA-MB-435 cells incubated for 48 hrs by sulforhodamine B assay
SK-MEL-2 = assay: Growth inhibition of human SK-MEL-2 cells incubated for 48 hrs by sulforhodamine B assay
SK-MEL-28 = assay: Growth inhibition of human SK-MEL-28 cells incubated for 48 hrs by sulforhodamine B assay
UACC-257 = assay: Growth inhibition of human UACC-257 cells incubated for 48 hrs by sulforhodamine B assay
IGROV-1 = assay: Growth inhibition of human IGROV-1 cells incubated for 48 hrs by sulforhodamine B assay
OVCAR-3 = assay: Growth inhibition of human OVCAR-3 cells incubated for 48 hrs by sulforhodamine B assay
OVCAR-4 = assay: Growth inhibition of human OVCAR-4 cells incubated for 48 hrs by sulforhodamine B assay
OVCAR-5 = assay: Growth inhibition of human OVCAR-5 cells incubated for 48 hrs by sulforhodamine B assay
OVCAR-8 = assay: Growth inhibition of human OVCAR-8 cells incubated for 48 hrs by sulforhodamine B assay
SK-OV-3 = assay: Growth inhibition of human SK-OV-3 cells incubated for 48 hrs by sulforhodamine B assay
ACHN = assay: Growth inhibition of human ACHN cells incubated for 48 hrs by sulforhodamine B assay
CAKI-1 = assay: Growth inhibition of human CAKI-1 cells incubated for 48 hrs by sulforhodamine B assay
RXF 393 = assay: Growth inhibition of human RXF 393 cells incubated for 48 hrs by sulforhodamine B assay
TK-10 = assay: Growth inhibition of human TK-10 cells incubated for 48 hrs by sulforhodamine B assay
UO-31 = assay: Growth inhibition of human UO-31 cells incubated for 48 hrs by sulforhodamine B assay
DU-145 = assay: Growth inhibition of human DU-145 cells incubated for 48 hrs by sulforhodamine B assay
MCF7 = assay: Growth inhibition of human MCF7 cells incubated for 48 hrs by sulforhodamine B assay
MDA-MB-231 = assay: Growth inhibition of human MDA-MB-231 cells incubated for 48 hrs by sulforhodamine B assay
Hs-578T = assay: Growth inhibition of human Hs-578T cells incubated for 48 hrs by sulforhodamine B assay
BT-549 = assay: Growth inhibition of human BT-549 cells incubated for 48 hrs by sulforhodamine B assay
T47D = assay: Growth inhibition of human T47D cells incubated for 48 hrs by sulforhodamine B assay
MDA-MB-468 = assay: Growth inhibition of human MDA-MB-468 cells incubated for 48 hrs by sulforhodamine B assay
[1] = read-out: LC50 (the source's name)

SMILES: O=C(CNc1c(Cl)cccc1Cl)Nc1ccc(-c2nc3ccccc3s2)cc1
- GI50 (MOLT-4): 1.05 µM
- LC50 (MOLT-4): > 100 µM
- TGI (MOLT-4): 7.43 µM
- GI50 (A549): 3.65 µM
- TGI (A549): 16.9 µM
- CC50 (A549; [1]): > 100 µM
- GI50 (HOP-62): 3.31 µM
- TGI (HOP-62): 11.8 µM
- CC50 (HOP-62; [1]): 77.8 µM
- GI50 (HOP-92): 1.88 µM
- LC50 (concentration killing 50% of cells) (HOP-92): 26.7 µM
- TGI (HOP-92): 6.3 µM
- GI50 (NCI-H23): 2 µM
- LC50 (lethal concentration 50%) (NCI-H23): 17.1 µM
- TGI (NCI-H23): 4.59 µM
- GI50 (NCI-H322M): 1.8 µM
- LC50 (concentration killing 50% of cells) (NCI-H322M): 7.07 µM
- TGI (NCI-H322M): 3.57 µM
- GI50 (HCC 2998): 1.89 µM
- TGI (HCC 2998): 3.56 µM
- CC50 (HCC 2998; [1]): 6.68 µM
- GI50 (KM12): 2.47 µM
- LC50 (concentration killing 50% of cells) (KM12): 22.3 µM
- TGI (KM12): 6.17 µM
- GI50 (SF-295): 15.3 µM
- LC50 (concentration causing 50% net cell kill) (SF-295): 60.5 µM
- TGI (SF-295): 30.4 µM
- GI50 (U-251): 2.02 µM
- LC50 (lethal concentration 50) (U-251): 9.45 µM
- TGI (U-251): 4.37 µM
- GI50 (LOX IMVI): 1.19 µM
- LC50 (LOX IMVI): 6.03 µM
- TGI (LOX IMVI): 2.68 µM
- GI50 (Malme-3M): 1.71 µM
- TGI (Malme-3M): 3.43 µM
- CC50 (Malme-3M; [1]): 6.88 µM
- GI50 (M14): 2.2 µM
- TGI (M14): 6.55 µM
- CC50 (M14; [1]): 60.1 µM
- GI50 (MDA-MB-435): 2.6 µM
- LC50 (MDA-MB-435): 99.6 µM
- TGI (MDA-MB-435): 11.3 µM
- GI50 (SK-MEL-2): 4.14 µM
- LC50 (lethal concentration, 50% cell kill) (SK-MEL-2): > 100 µM
- TGI (SK-MEL-2): 18.8 µM
- GI50 (SK-MEL-28): 1.8 µM
- LC50 (SK-MEL-28): 7.47 µM
- TGI (SK-MEL-28): 3.67 µM
- GI50 (UACC-257): 3.61 µM
- LC50 (UACC-257): 63.1 µM
- TGI (UACC-257): 11.9 µM
- GI50 (IGROV-1): 1.92 µM
- TGI (IGROV-1): 4.33 µM
- CC50 (IGROV-1; [1]): 9.73 µM
- GI50 (OVCAR-3): 1.81 µM
- LC50 (OVCAR-3): 5.79 µM
- TGI (OVCAR-3): 3.24 µM
- GI50 (OVCAR-4): 1.68 µM
- LC50 (OVCAR-4): 9.74 µM
- TGI (OVCAR-4): 4.05 µM
- GI50 (OVCAR-5): 1.92 µM
- LC50 (concentration killing 50% of cells) (OVCAR-5): 9.53 µM
- TGI (OVCAR-5): 4.28 µM
- GI50 (OVCAR-8): 2.64 µM
- LC50 (OVCAR-8): > 100 µM
- TGI (OVCAR-8): 8.9 µM
- GI50 (SK-OV-3): 5.84 µM
- LC50 (concentration killing 50% of cells) (SK-OV-3): > 100 µM
- TGI (SK-OV-3): 50.9 µM
- GI50 (ACHN): 1.82 µM
- LC50 (ACHN): 6.63 µM
- TGI (ACHN): 3.47 µM
- GI50 (CAKI-1): 2.3 µM
- LC50 (concentration killing 50% of cells) (CAKI-1): 27.4 µM
- TGI (CAKI-1): 6.71 µM
- GI50 (RXF 393): 1.63 µM
- LC50 (concentration killing 50% of cells) (RXF 393): 7.27 µM
- TGI (RXF 393): 3.44 µM
- GI50 (TK-10): 2.15 µM
- LC50 (TK-10): 18.3 µM
- TGI (TK-10): 5.41 µM
- GI50 (UO-31): 1.5 µM
- LC50 (concentration killing 50% of cells) (UO-31): 8.5 µM
- TGI (UO-31): 3.57 µM
- GI50 (DU-145): 3.33 µM
- LC50 (concentration killing 50% of cells) (DU-145): 32.2 µM
- TGI (DU-145): 10.4 µM
- GI50 (MCF7): 0.0371 µM
- LC50 (MCF7): 39.8 µM
- TGI (MCF7): 2.49 µM
- GI50 (MDA-MB-231): 2.73 µM
- LC50 (concentration causing 50% cell kill) (MDA-MB-231): > 100 µM
- TGI (MDA-MB-231): 7.35 µM
- GI50 (Hs-578T): 5.58 µM
- LC50 (Hs-578T): > 100 µM
- TGI (Hs-578T): 69.3 µM
- GI50 (BT-549): 1.7 µM
- LC50 (concentration killing 50% of cells) (BT-549): 44.4 µM
- TGI (BT-549): 5.39 µM
- GI50 (T47D): 1.86 µM
- LC50 (concentration killing 50% of cells) (T47D): > 100 µM
- TGI (T47D): 5.44 µM
- GI50 (MDA-MB-468): 0.0251 µM
- TGI (MDA-MB-468): 0.137 µM
- CC50 (MDA-MB-468; [1]): 4.33 µM
